The values below come from patent US6620828B2, “Thiazole compounds and pharmaceutical compositions for inhibiting protein kinases and methods for their use” (Agouron Pharmaceuticals, Inc., priority 1999, dated 2003).

What all share (type): biochemical
Assay [1] has as its target T1, phosphorylated VEGF-R2Δ50 (FLVK-P) (Homo sapiens, UniProt P35968, DEL940-989/E990V).
T1 construct: VEGF-R2Δ50 contains residues 806-939 and 990-1171; made in house; host or cells: baculovirus/insect cells
Description: VEGF-R2 coupled spectrophotometric (FLVK-P) assay. The settings on record: combinatorial library compounds; for inhibition at 20 µM: read-out: VEGF % inhibition at 20 μM, 20 μM. The essentials: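 Baculovirus-expressed human VEGF-R2Δ50 (residues 806-939/990-1171, E990V) was autophosphorylated with 3 mM ATP, 40 mM MgCl2 for 2 h at 4° C. ADP formation was coupled via PK/LDH to NADH oxidation, read at 340 nm, with 5.1 mM poly(E4Y1), 1 mM ATP, 25 mM MgCl2, Hepes pH 7.5. Ki came from activity across compound concentrations.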

For assay [2], the target named is T2, FL-CHK1 (Homo sapiens, UniProt O14757).
T2 construct: C-terminally His-tagged full-length human CHK1 (FL-CHK1); 6xHis (C); made in house; host or cells: baculovirus/insect cells
T2 sequence (O14757 1-476): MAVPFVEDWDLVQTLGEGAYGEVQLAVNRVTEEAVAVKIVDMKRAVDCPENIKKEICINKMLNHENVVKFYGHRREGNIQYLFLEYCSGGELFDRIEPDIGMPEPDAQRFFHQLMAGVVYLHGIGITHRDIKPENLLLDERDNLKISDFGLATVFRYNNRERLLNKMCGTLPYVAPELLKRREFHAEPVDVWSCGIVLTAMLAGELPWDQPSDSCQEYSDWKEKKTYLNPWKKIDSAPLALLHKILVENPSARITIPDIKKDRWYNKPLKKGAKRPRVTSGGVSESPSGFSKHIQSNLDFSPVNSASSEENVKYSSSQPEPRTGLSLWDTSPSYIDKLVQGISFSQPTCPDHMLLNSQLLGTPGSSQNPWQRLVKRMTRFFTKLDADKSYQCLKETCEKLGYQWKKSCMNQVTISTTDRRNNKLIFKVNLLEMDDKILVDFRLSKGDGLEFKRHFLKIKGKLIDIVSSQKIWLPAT
As to the kind of experiment: CHK1 assay. To be noted: 20 μM; combinatorial library compounds. In a few lines:
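Full-length human CHK1 with C-terminal 6×His tag, made in baculovirus/insect cells, 10 nM, phosphorylating 0.125 mM Syntide-2 with 0.15 mM ATP in 50 mM Tris pH 7.5, 25 mM MgCl2, 400 mM NaCl. PK/LDH-coupled NADH oxidation read at 340 nm. Ki from initial rates over varied compound concentrations.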

Assay [3] has as its target CDK2/Cyclin A complex (Homo sapiens, UniProt P24941). As to the kind of experiment: CDK2/Cyclin A assay. To be noted: 1.0 μM; combinatorial library compounds. In a few lines: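 Radiometric assay: 150 nM CDK2/cyclin A (insect-cell CDK2, truncated cyclin A) phosphorylates His-tagged Rb fragment (residues 386-928) with 25 μM ATP plus [32P]ATP, pH 7.4 HEPES, 2% DMSO, 30 °C for 20 min. Filter-captured product counted by phosphorimager; apparent Ki from competitive or tight-binding inhibition fits.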

The target in assay [4] is T3, CDK4/Cyclin D3 complex (Homo sapiens, UniProt P11802).
T3 construct: made in house; host or cells: insect cells co-infected with baculovirus vectors
T3 sequence (P11802 whole entry): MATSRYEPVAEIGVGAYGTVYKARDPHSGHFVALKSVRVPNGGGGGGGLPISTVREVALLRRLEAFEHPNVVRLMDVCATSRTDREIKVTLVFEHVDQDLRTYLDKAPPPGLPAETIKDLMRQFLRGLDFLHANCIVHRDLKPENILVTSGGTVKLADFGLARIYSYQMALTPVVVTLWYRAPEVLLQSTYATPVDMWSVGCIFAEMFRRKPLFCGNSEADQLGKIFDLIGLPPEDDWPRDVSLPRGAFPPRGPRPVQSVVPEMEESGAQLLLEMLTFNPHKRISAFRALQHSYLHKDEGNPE
T3 sequence (P30281 whole entry partner): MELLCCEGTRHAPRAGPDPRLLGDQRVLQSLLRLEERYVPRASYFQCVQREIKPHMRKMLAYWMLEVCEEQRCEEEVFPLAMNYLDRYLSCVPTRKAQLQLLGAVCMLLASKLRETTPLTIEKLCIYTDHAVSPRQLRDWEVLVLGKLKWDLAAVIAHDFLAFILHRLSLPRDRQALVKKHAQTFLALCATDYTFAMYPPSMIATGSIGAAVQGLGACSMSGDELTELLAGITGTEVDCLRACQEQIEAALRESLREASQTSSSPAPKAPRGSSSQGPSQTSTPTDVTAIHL
As to the kind of experiment: CDK4/Cyclin D assay. The settings on record: 1.0 μM; combinatorial library compounds. The essentials: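 Insect-cell-expressed CDK4/cyclin D3 (50 nM) phosphorylating His-tagged Rb fragment (residues 386-928) with 25 μM [^32P]ATP in HEPES pH 7.4, MgCl2, 2% DMSO; 20 min at 30 °C, EDTA stop. Filter-captured 32P by phosphorimager; apparent Ki from competitive or tight-binding inhibition fits.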

T1 sequence (P35968 with tags, fused parts or gaps DEL940-989/E990V limits assumed): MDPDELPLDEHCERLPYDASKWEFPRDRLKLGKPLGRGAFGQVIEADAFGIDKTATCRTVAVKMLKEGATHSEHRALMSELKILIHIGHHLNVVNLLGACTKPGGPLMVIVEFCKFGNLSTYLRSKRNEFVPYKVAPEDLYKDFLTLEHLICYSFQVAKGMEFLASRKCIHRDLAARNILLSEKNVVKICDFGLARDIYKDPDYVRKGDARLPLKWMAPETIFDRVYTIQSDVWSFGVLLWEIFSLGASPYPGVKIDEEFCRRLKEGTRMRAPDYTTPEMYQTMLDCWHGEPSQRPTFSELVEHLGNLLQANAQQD

In general, inhibition refers to the drop in the measured response relative to a control, in per cent. Regarding `CC(C)c1ccc(Nc2nc(N)c(-c3nc(-c4ccccc4[N+](=O)[O-])cs3)s2)cc1`, the inhibition at 20 µM in assay [1] is 16%; in assay [2] it was 32.2%. In addition, the results for the inhibition at 1 µM in assay [3] and in assay [4] were 17.7% and 63%, respectively.
Regarding `CN(C)c1ccc(Nc2nc(N)c(-c3nc(-c4ccc5c(c4)C(C)(C)CCC5(C)C)cs3)s2)cc1`, the inhibition at 20 µM in assay [1] was determined as 18%; in assay [2] it was 32.9%. In addition, the inhibition at 1 µM in assay [3] was found to be 3.1%; in assay [4], 74.4%.
On to `Cc1onc(-c2ccccc2)c1-c1csc(-c2sc(Nc3ccc(N(C)C)cc3)nc2N)n1`, for which the inhibition at 20 µM in assay [1] stood at 25%; in assay [2], 8.1%. Moreover, the inhibition at 1 µM is 8.3% in assay [3] and 59.8% in assay [4].
Turning to `CN(C)c1ccc(Nc2nc(N)c(-c3nc(-c4cc(C(C)(C)C)c(O)c(C(C)(C)C)c4)cs3)s2)cc1`, the inhibition at 20 µM in assay [1] worked out at 6%; in assay [2] it was 37.1%. Also, the inhibition at 1 µM in assay [3] turned out to be 18.3%; in assay [4] it was 73.2%.
In the case of `Cc1c(-c2csc(-c3sc(Nc4ccc(N(C)C)cc4)nc3N)n2)sc2ccc(Cl)cc12` [drawing 552], in assay [1], the “VEGF % inhibition at 20 μM” value turned out to be 29%. In addition, the “CHK1 % Inhibition at 20 μM” value in assay [2] turned out to be 26.8%. For the same compound, in assay [3], the “CDK2 % Inhibition at 1.0 μM” value is recorded as 37.3%. The “CDK4 % Inhibition at 1.0 μM” value in assay [4] is 65.1%.
Regarding `CN(C)c1ccc(Nc2nc(N)c(-c3nc(-c4ccccc4)cs3)s2)cc1` [drawing 561], the “VEGF % inhibition at 20 μM” value in assay [1] amounted to 30%. The “CHK1 % Inhibition at 20 μM” value in assay [2] is listed as 17.5%. For the same compound, the “CDK2 % Inhibition at 1.0 μM” value in assay [3] amounted to 19.7%. Besides, the “CDK4 % Inhibition at 1.0 μM” value in assay [4] is recorded as 65.1%.
As for `CN(C)c1ccc(Nc2nc(N)c(-c3nc(-c4ccc5c(c4)CCC(=O)N5)cs3)s2)cc1`, the inhibition at 20 µM stood at 20% in assay [1] and 32.7% in assay [2]. For the same compound, the inhibition at 1 µM was -2.5% in assay [3] and 43.7% in assay [4].
For `CC(C)c1ccc(Nc2nc(N)c(-c3nc(-c4ccc(-c5ccccc5)cc4)cs3)s2)cc1`, the inhibition at 20 µM in assay [1] is -9%; in assay [2] it was 3.2%. For the same compound, the inhibition at 1 µM was 9.6% in assay [3] and 0.7% in assay [4].
`CCOC(=O)c1ccccc1-c1csc(-c2sc(Nc3ccc(C(C)C)cc3)nc2N)n1`: the inhibition at 20 µM in assay [1] and in assay [2] was 26% each time. The inhibition at 1 µM is 29.2% in assay [3] and 81.6% in assay [4].
As for `Nc1nc(Nc2ccc(S(N)(=O)=O)cc2)sc1-c1nc(C2C=C([N+](=O)[O-])C=CC2)cs1` (centres unmarked), the inhibition at 20 µM in assay [1] worked out at 30%; in assay [2], 10.8%. For the same compound, the inhibition at 1 µM was 17.8% in assay [3] and -28.6% in assay [4].
With `Cc1onc(-c2ccccc2)c1-c1csc(-c2sc(Nc3ccc(S(N)(=O)=O)cc3)nc2N)n1`, the figures for the inhibition at 20 µM in assay [1] and in assay [2] were -2% and 2.9%, respectively. Also, the inhibition at 1 µM in assay [3] was -4.5%; in assay [4], -3.9%.
Regarding `CN(C)c1ccc(Nc2nc(N)c(-c3nc(-c4ccc(F)cc4)cs3)s2)cc1`, the inhibition at 20 µM in assay [1] amounted to 41%; in assay [2], 41.7%. For the same compound, the inhibition at 1 µM stood at 34.8% in assay [3] and 56% in assay [4].
Regarding `CCOC(=O)c1ccccc1-c1csc(-c2sc(Nc3ccc(N(C)C)cc3)nc2N)n1`, the inhibition at 20 µM was found to be 25% in assay [1] and 38.5% in assay [2]. In addition, the inhibition at 1 µM in assay [3] is 19.8%; in assay [4], 45.9%.
For the compound `COc1ccc(-c2csc(-c3sc(Nc4ccc(N(C)C)cc4)nc3N)n2)c(OC)c1`, the inhibition at 20 µM in assay [1] was found to be 1%; in assay [2], 3.1%. Moreover, the results for the inhibition at 1 µM in assay [3] and in assay [4] were 6.7% and 35.4%, respectively.
`Cc1c(-c2csc(-c3sc(Nc4ccc(S(N)(=O)=O)cc4)nc3N)n2)sc2ccc(Cl)cc12` [drawing 424]: the inhibition at 20 µM in assay [1] came to 23%. For the same compound, the “CHK1 % Inhibition at 20 μM” value in assay [2] came to 28.4%. The inhibition at 1 µM in assay [3] amounted to 67%; in assay [4], 59.9%.
For `COc1ccc(-c2csc(-c3sc(Nc4ccc(S(N)(=O)=O)cc4)nc3N)n2)cc1` [drawing 399], in assay [1], the “VEGF % inhibition at 20 μM” value is on record as 48%. For the same compound, the inhibition at 20 µM in assay [2] worked out at 6.9%. In addition, the “CDK2 % Inhibition at 1.0 μM” value in assay [3] was 10.7%. In assay [4], the “CDK4 % Inhibition at 1.0 μM” value is reported as 9.3%.
As to `Cc1cc(-c2csc(-c3sc(Nc4ccc(C(C)C)cc4)nc3N)n2)ccc1Cl`, the results for the inhibition at 20 µM in assay [1] and in assay [2] were -7% and 9%, respectively. The inhibition at 1 µM was determined as 11.7% in assay [3] and 9.1% in assay [4].
For the compound `Nc1nc(Nc2ccc(S(N)(=O)=O)cc2)sc1-c1nc(-c2cc3cc(Cl)ccc3o2)cs1`, the inhibition at 20 µM in assay [1] was -4%; in assay [2] it was 13.6%. Moreover, the inhibition at 1 µM in assay [3] is 16.6%; in assay [4], -15%.
In the same order, the values of `CC(C)c1ccc(Nc2nc(N)c(-c3nc(-c4ccc5ccccc5c4)cs3)s2)cc1` are -2%, 10.7%, 17.2% and 51.2%.
`Cc1ccc(-c2csc(-c3sc(Nc4ccc(N(C)C)cc4)nc3N)n2)c(C)c1`: the inhibition at 20 µM in assay [1] was 21%; in assay [2], -0.9%. Besides, the inhibition at 1 µM came to 16.1% in assay [3] and 23.3% in assay [4].
For `COc1ccc(-c2csc(-c3sc(Nc4ccc(N(C)C)cc4)nc3N)n2)cc1` [drawing 525], the inhibition at 20 µM in assay [1] was 13%. Besides, the “CHK1 % Inhibition at 20 μM” value in assay [2] amounted to 2.7%. Moreover, in assay [3], the “CDK2 % Inhibition at 1.0 μM” value was 6.1%. The “CDK4 % Inhibition at 1.0 μM” value in assay [4] is on record as 19.1%.
Regarding `Cc1onc(-c2ccccc2)c1-c1csc(-c2sc(Nc3ccc(C(C)C)cc3)nc2N)n1`, the inhibition at 20 µM in assay [1] was 5%; in assay [2], -0.9%. The inhibition at 1 µM is 11.1% in assay [3] and 49.8% in assay [4].
As to `CN(C)c1ccc(Nc2nc(N)c(-c3nc(-c4ccc([N+](=O)[O-])cc4)cs3)s2)cc1`, the results for the inhibition at 20 µM in assay [1] and in assay [2] were 8% and 17.8%, respectively. Also, the values for the inhibition at 1 µM in assay [3] and in assay [4] were 22.1% and 50.4%, respectively.
With `CC(C)c1ccc(Nc2nc(N)c(-c3nc(-c4ccc(O)cc4)cs3)s2)cc1`, the inhibition at 20 µM is 49% in assay [1] and 25% in assay [2]. Moreover, the inhibition at 1 µM was 10.5% in assay [3] and 77% in assay [4].
Regarding `Nc1nc(Nc2ccc(S(N)(=O)=O)cc2)sc1-c1nc(-c2ccc(F)c(F)c2)cs1`, the inhibition at 20 µM in assay [1] was 38%; in assay [2], 17.5%. The inhibition at 1 µM is 12.4% in assay [3] and -5.3% in assay [4].
`Nc1nc(Nc2ccc(S(N)(=O)=O)cc2)sc1-c1nc(-c2ccc3c(c2)CCC(=O)N3)cs1`: the inhibition at 20 µM in assay [1] turned out to be 7%; in assay [2] it was 15.3%. The inhibition at 1 µM in assay [3] was 56.6%; in assay [4], 42.2%.
As to `Nc1nc(Nc2ccc(S(N)(=O)=O)cc2)sc1-c1nc(-c2c(Cl)cc(C(F)(F)F)cc2Cl)cs1`, the inhibition at 20 µM in assay [1] worked out at 9%; in assay [2], 21.7%. The figures for the inhibition at 1 µM in assay [3] and in assay [4] were 53.9% and 58%, respectively.
Consider `COc1ccc(-c2csc(-c3sc(Nc4ccc(S(N)(=O)=O)cc4)nc3N)n2)c(OC)c1`, for which the inhibition at 20 µM in assay [1] is 3%; in assay [2], -3.9%. Also, the inhibition at 1 µM is 12.5% in assay [3] and -1.2% in assay [4].
For `Nc1nc(Nc2ccc(S(N)(=O)=O)cc2)sc1-c1nc(-c2cc(Br)c(Cl)s2)cs1`, the inhibition at 20 µM is 6% in assay [1] and 7.9% in assay [2]. The inhibition at 1 µM in assay [3] worked out at 60.5%; in assay [4], 56.4%.
